The results in this text go back to publication PMC8658773, “Two New Isoprenoid Flavonoids from Sophora flavescens with Antioxidant and Cytotoxic Activities” (Molecules, 2021).

Where two headings read alike, the source gives them in different places.

The subject of data set [1] is A549 cells. The experiment in a line: Cytotoxic activity (MTS assay), A549. It is filed as cell-based, human. The conditions noted are these: for IC50: MTS. The procedure:
(§1) The tests were conducted according to our previous reports. The cells were grown in DMEM medium supplemented with 10% FBS, penicillin (100 U/mL), and streptomycin (100 μg/mL) in a 37 °C and 5% CO2 incubator. The cytotoxic activities were performed by the MTS assay. Briefly, 28 compounds were dissolved with DMSO. The cells were seeded at 1 × 10^5 cells/mL in 96-well plates (100 µL/well) and cultured for 18 h when the cells filled the bottom of the wells. Then the supernatant was discard, the compounds (10 μM, 100 µL/well) were added to the culture and incubated for 24 h before cell viability measurement. 10 µL MTS reagent (0.5 mg/mL) were added and further incubated for 4 h. Finally, absorbance was read using an automatic micro-plate reader (Molecular Devices, USA) at 490 nm to test the cell viabilities, and the results were presented as the percent of non-treated control for each concentration. Irinotecan was used as the positive control. All measurements were repeated in triplicate. Data were expressed as the mean ± SD.

A short description of data set [2]: DPPH free radical scavenging assay. It counts as biochemical. The conditions noted are these: 20 μg/mL; SD in brackets. As for the experimental part:
The in vitro antioxidant activity tests were conducted according to previous reports. Among them, the DPPH free radical scavenging assay was slightly modified. Briefly, the DPPH material was precisely weighed, ethanol solution was added to obtain a concentration of 0.1 mmol/L (to use immediately, or store in the dark). Then, the compounds (100 µL, 40 µg/mL) with DPPH solution (100 µL) (Ai) were added to 96-well plates and incubated for 30 min at room temperature. Subsequently, the activity was measured using the Thermo Scientific Varioskan LUX ([…], VL0L00D0, USA), with an absorbance of 570 nm. Vitamin C (VC) (40 µg/mL) was used as the positive control.
On the technique in general: DPPH is a stable violet radical that fades when it is reduced.

The subject of data set [3] is HepG2 cells. Kind of data set: Cytotoxic activity (MTS assay), HepG2. It is filed as cell-based, human. The conditions noted are these: SD in brackets; for inhibition at 10 µM: Homo sapiens, HepG2, 10 µM, read-out: HepG2 cell inhibitory activity (Table S4). In general terms: Formazan colour is commonly taken as a measure of viable cells.
Data set [4] relates to MCF7 cells. The experiment in a line: Cytotoxic activity (MTS assay), MCF7. It counts as cell-based, human. The conditions noted are these: for inhibition at 10 µM / IC50: Homo sapiens, MCF7, 24 h; for inhibition at 10 µM: read-out: MCF7 inhibition rate; for IC50: MTS. As for the experimental part:
as §1

Data set [5] concerns A549 cells. Kind of data set: Cytotoxic activity (MTS assay), A549. The conditions noted are these: SD in brackets; for inhibition at 10 µM: Homo sapiens, A549, read-out: A549 cell inhibitory activity (Table S5). It counts as cell-based, human.
The subject of another data set is LO2 cells. Kind of data set: Cytotoxic activity (MTS assay), LO2 normal cells. It counts as cell-based, human. The conditions noted are these: for inhibition at 10 µM: Homo sapiens, L02, read-out: LO2 cell inhibitory activity (Table S7).
For data set [6], the system named is MCF7 cells. The experiment in a line: Cytotoxic activity (MTS assay), MCF7. It is filed as cell-based, human. The conditions noted are these: SD in brackets; for inhibition at 10 µM: Homo sapiens, MCF7, read-out: MCF-7 cell inhibitory activity (Table S6).
Data set [7] has as its system HepG2 cells. Kind of data set: Cytotoxic activity (MTS assay), HepG2. It counts as cell-based, human. The conditions noted are these: for IC50: 24 h, MTS; for inhibition at 10 µM: HepG2, 24 h, read-out: HepG2 inhibition rate. As for the experimental part:
as §1

A short description of data set [8]: PTIO free radical scavenging assay. It counts as biochemical. The conditions noted are these: 8 μg/mL; SD in brackets. The procedure:
PTIO free radical scavenging was also performed following previous reports with some modification. VC was used as the positive control. PTIO radicals were dissolved with phosphate buffer (PBS) (pH 7.4, 50 mM) with a concentration of 0.05 mg/mL. Then, the samples (40 µL, 40 µg/mL) and PTIO solution (160 µL) were added into 96-well plates (as the value of Ai). After being thoroughly mixed, the reaction solution was incubated at 37 °C in a water-bath for 2 h. Then, the absorbance was measured at 557 nm. PTIO free radical scavenging was calculated using the above equation. (40 µL PBS with 160 µL PTIO as A0, 40 µL compounds with 160 µL PBS as Aj).

Data set [9] in a line: ABTS free radical scavenging assay. It is filed as biochemical. The procedure:
The third assay, the ABTS free radical scavenging screen was performed by previous experiments with slight changes. First, we needed to prepare for the ABTS^+ solution. […] Then, they were mixed with equal volume at room temperature and kept away from light for 12 h, the mixed solution was diluted with ethanol until the absorbance of […]. Thus, the ABTS^+ solution was obtained. Furthermore, the compounds (100 µL, 40 µg/mL) with ABTS^+ solution (100 µL) were also added to the 96-well plates (as the value of Ai) and were interacted for 10 min at room temperature in the dark, then the absorbance at 734 nm was measured. VC was used as the positive control. Antioxidant capacity was calculated according to the first formula (the value of 100 µL ethanol with 100 µL ABTS^+ solution as A0, the value of 100 µL compounds with 100 µL ethanol as Aj). All experiments were carried out in triplicate.

The test system of data set [10] is HepG2, A549 and MCF7 cells. The experiment in a line: Cytotoxic activity (MTS assay), stated jointly for three cancer cell lines. It counts as cell-based. The conditions noted are these: Homo sapiens, read-out: IC50 values against the three cancer cell lines (range). As for the experimental part:
as §1

The term IC50 denotes the midpoint of a concentration-inhibition curve. Regarding kushenol A [Compound 13], the “Inhibition of A549 cells (in words)” value in the data set with A549 cells [1] was “could hardly inhibit”. For the same compound, the “DPPH radical scavenging activity (inhibition rate)” value in [2] was 25.6% (2.4%). Further, in the data set with HepG2 cells [3] (10 μg/mL), the “HepG2 cell inhibitory activity (Table S4)” value is 97.5% (0.1%). In the data set on MCF7 cells [4], the “Inhibition of MCF7 cells (in words)” value is “could hardly inhibit”. Further, the “A549 cell inhibitory activity (Table S5)” value in the data set on A549 cells [5] (10 μg/mL) is reported as 17.6% (0.6%). Further, the “LO2 cell inhibitory activity (Table S7)” value in the data set with LO2 cells (10 μg/mL, SD in brackets) is reported as 26.8% (2.7%). Besides, the “MCF-7 cell inhibitory activity (Table S6)” value in the data set on MCF7 cells [6] (10 μg/mL) was 11.5% (2.1%). For the same compound, the IC50 with HepG2 cells [7] was determined as 6.85 µM. Further, in data set [8], the “PTIO radical scavenging activity (inhibition rate)” value is 35.6% (1.0%). For the same compound, the “ABTS radical scavenging activity (inhibition rate)” value in data set [9] (20 μg/mL, SD in brackets) is recorded as 81.5% (1.9%).
In the case of `C=C(C)C(CC=C(C)C)Cc1cc(OC)ccc1C1Oc2cc(O)cc(CC(CC=C(C)C)C(=C)C)c2C(=O)C1O` (centres unmarked) [Compound 1, 7-hydroxy-5,1-bis (5-methyl-2-isopropyl-hexene) -flavanonol], the inhibition at 10 µM in the data set on A549 cells [1] (Homo sapiens, A549, 10 μM, 24 h, read-out: A549 inhibition rate) was 58%; with HepG2 cells [3], 84.1%; in the data set on MCF7 cells [4], 85%; in the data set on A549 cells [5] it was 58%; in the data set with LO2 cells (SD in brackets) it was 29.4%; in the data set with MCF7 cells [6], 85%. Besides, the inhibition at 10 µM with HepG2 cells [7] (Homo sapiens) came to 84%. Moreover, the IC50 in the data set on A549 cells [1] (Homo sapiens, A549, 24 h) was 10.6 µM; with MCF7 cells [4], 7.5 µM; in data set [10], 7.5 to 10.6 µM; in the data set with HepG2 cells [7] (Homo sapiens, HepG2), 9.6 µM. The “DPPH radical scavenging activity (inhibition rate)” value in [2] is 40.0% (4.9%). Moreover, the “Cytotoxic effect on LO2 human normal cells (in words)” value with LO2 cells (compared with cancer cells) is recorded as “little effect”. The “PTIO radical scavenging activity (inhibition rate)” value in data set [8] is reported as 37.3% (3.4%).
In the case of `CCc1c2c(nc3ccc(OC(=O)N4CCC(N5CCCCC5)CC4)cc13)-c1cc3c(c(=O)n1C2)COC(=O)[C@]3(O)CC` [irinotecan, reference compound], the IC50 in the data set with A549 cells [1] (Homo sapiens, A549, 24 h) was 1 µM; with MCF7 cells [4] it was 0.9 µM; in the data set on HepG2 cells [7] (Homo sapiens, HepG2), 0.6 µM.
With `C=C(C)[C@H](CCC(C)(C)O)Cc1c(O)cc(OC)c2c1O[C@H](c1ccc(O)cc1O)[C@@H](O)C2=O` [Compound 3, kushenol H], in data set [2], the “DPPH radical scavenging activity (inhibition rate)” value is on record as 53.5% (0.4%). Besides, the inhibition at 10 µM in the data set with HepG2 cells [3] was 1.9%; in the data set on MCF7 cells [4] it was 4.5%; in the data set with A549 cells [5] it was 11.3%; in the data set on LO2 cells (SD in brackets), 15.5%; in the data set with MCF7 cells [6], -4.5%; in the data set with HepG2 cells [7] (Homo sapiens), 1.9%. Besides, the “ABTS radical scavenging IC50” value in data set [9] came out at 2.05 µg/mL.
Take `C=C(C)C(CCC(C)(C)O)Cc1c(O)cc(OC)c2c1OC(c1ccc(O)cc1O)C(O)C2=O` (centres unmarked) [Compound 4, kushenol L]: the “DPPH radical scavenging activity (inhibition rate)” value in data set [2] is 37.1% (3.0%). The inhibition at 10 µM with HepG2 cells [3] is 4.6%; with MCF7 cells [4], 0.7%; in the data set on A549 cells [5], 8.2%; in the data set with LO2 cells (SD in brackets) it was 3.2%; in the data set with MCF7 cells [6], -0.7%; in the data set on HepG2 cells [7] (Homo sapiens), 4.6%. Also, the “PTIO radical scavenging activity (inhibition rate)” value in [8] is recorded as 39.4% (1.3%). Also, in data set [9], the “ABTS radical scavenging IC50” value stood at 3.72 µg/mL.
For `C=C(C)C(CC=C(C)C)Cc1c(O)c(OC)c2c(c1O)C(=O)C(O)C(c1ccc3c(c1)OCO3)O2` (centres unmarked) [Compound 2, 5,7-dihydroxy-8-methoxy-6-(5-methyl-2-iso-hexenyl)-3′,4′-methylene dioxy-flavanonol], the “DPPH radical scavenging activity (inhibition rate)” value in data set [2] is given as 42.3% (1.5%). Also, the inhibition at 10 µM in the data set on HepG2 cells [3] amounted to 19.9%; in the data set with MCF7 cells [4] it was 10.3%; in the data set with A549 cells [5], 17.2%; with LO2 cells (SD in brackets) it was 27.9%; in the data set with MCF7 cells [6] it was 10.3%; in the data set on HepG2 cells [7] (Homo sapiens), 19.9%. Besides, the “PTIO radical scavenging activity (inhibition rate)” value in [8] is 41.0% (2.6%). In addition, the “ABTS radical scavenging IC50” value in data set [9] is 1.81 µg/mL.
